The experiment has as its target Tyrosine-protein phosphatase YopH [Yersinia enterocolitica]. Description: potency against Yersinia YopH phosphatase – biochemical, 10-point dose range, dose response (AID 1261). The note with it: YopH phosphatase enzymatic assay, IC50, 3 runs; for inhibition: at 50 µM, stronger effect = higher value.

Records with an inconclusive call do not appear. Active and inactive are the calls of the source. The rule behind the calls is not given here. Some results are limits rather than exact numbers.

Broadly, the inhibition is the drop in the measured response relative to a control, in per cent. `CC1=CC(=C(C#N)c2nc3ccccc3s2)C=C(C)N1c1ccc(F)cc1F`: the inhibition was found to be 1.55%. On the same count and under the same terms, as for `N[C@@H](C(=O)N[C@@H]1C(=O)N2C(C(=O)O)=C(Cl)CS[C@H]12)c1ccccc1`, the figure is -8.78%; as for `O=S(=O)(c1ccc2ccccc2c1)N1CCC(c2nc(-c3ccncc3)no2)CC1`, -14.8%. Consider `O=C(O)c1ccc(NC2=C(N3CCOCC3)C(=O)c3ccccc3C2=O)cc1`, for which the inhibition was -0.899%.

On to `Oc1ccc(C=Nc2ccc3ncccc3c2)c(O)c1`, for which the inhibition was -3.62%. `O=C(O)c1ccccc1SCC(=O)N1c2ccccc2Sc2ccccc21`: the inhibition was -57.4%. For the compound `Cc1cccc(OCCCCc2c(C)n[nH]c2C)c1`, the inhibition was -10.5%. Consider `O=C1CC(N(O)c2ccccc2)C(=O)N1Cc1ccccc1` (stereo unspecified), for which the inhibition was -4.47%. Regarding `CC(=O)OCCCNc1cc(SCc2ccco2)c2nonc2c1[N+](=O)[O-]`, the inhibition was -2.61%. With `CC(C)N(C(=O)COc1ccc(Br)cc1Cl)C(C)C`, the inhibition was -12.6%. Consider `CCOC(=O)N1CCN(C(=O)Cn2c(C)cc3ccccc3c2=O)CC1`, for which the inhibition is -14.1%. `O=C(c1cccs1)N1CCN=C1SCc1cccnc1`: the inhibition is -11.7%. Take `COc1ccccc1NC(=O)N1CCC(C(=O)c2ccc(F)cc2)CC1`: the inhibition was -5.37%.

As to `CCOC(=O)COc1cc(=O)n(CC)c2ccccc12`, the inhibition is -3.72%. `Nc1cccc(C2=Nc3cccc4cccc(c34)N2)c1`: the inhibition came to 75.9%. `O=C(c1ccc(F)cc1)[C@@H]1[C@@H](C(=O)c2ccccc2)[C@@]2(C(=O)Nc3ccccc32)[C@H]2c3ccccc3C=CN12`: the inhibition is 13.8%.

Regarding `Nc1nnc2c(n1)CCCC2`, the inhibition stood at 23%. Regarding `O=C(CSc1ncn[nH]1)c1ccc2c(c1)OCO2`, the inhibition was -17.6%. Take `CN(CC(=O)N1CCCc2c1c(=O)oc1ccc(O)cc21)Cc1ccccc1`: the inhibition was -1.35%.

In the case of `CCc1ccc(S(=O)(=O)/N=C2/C=C(Sc3ncn[nH]3)C(=O)c3ccccc32)cc1`, the inhibition came out at 17.2%.

Take `CCOC(=O)c1oc2ccc(Br)cc2c1CSc1nnc(C)s1`: the inhibition was -12.1%. `CC1CCN(CCC(=O)N2CCCc3c2c(=O)oc2ccc(O)cc32)CC1`: the inhibition was -1.24%. Usually IC50 stands for the point on the concentration scale where inhibition reaches its midpoint. For the compound `COc1ccc(NC2=C(NCCO)C(=O)c3ccccc3C2=O)cc1`, the IC50 was > 50 µM (inactive) and the inhibition amounted to 20.2%. On to `O=C(Nc1nnc(C(F)(F)F)s1)c1ccc(N2C(=O)C3C4C=CC(C4)C3C2=O)cc1` (stereo unspecified), for which the inhibition was -8.43%.

For `O=C(O)C1OC(Oc2cc3oc(-c4ccccc4)cc(=O)c3c(O)c2O)C(O)C(O)C1O` (stereo unspecified), the inhibition was -26.6%. On the same count and under the same terms, for `Cc1ccc(C(C[N+](=O)[O-])c2c(C)[nH]n(-c3ccccc3)c2=O)cc1` (stereo unspecified) the value was -20.8%. On to `CC1=C(C(=O)OCC(C)C)C2(O)C(=O)c3ccccc3C2(O)N1` (stereo unspecified), for which the IC50 was > 50 µM (inactive) and the inhibition was 31.7%. For `Nc1c(NCc2ccccc2F)c(=O)[nH]c(=O)n1Cc1ccccc1`, the inhibition was 33.1%. `CCCNc1nc2c(c(=O)[nH]c(=O)n2C)n1Cc1ccc(F)cc1`: the inhibition was -11.6%. Turning to `O=C(O[C@@H]1OC2COC(=O)c3cc(O)c(O)c(O)c3-c3c(cc(O)c(O)c3O)C(=O)O[C@@H]([C@H]1O)[C@@H]2O)c1cc(O)c(O)c(O)c1`, the inhibition is -0.367%. `CCOc1ccc(-c2nnc3ccc(SCC(=O)Nc4nc5ccccc5s4)nn23)cc1`: the inhibition is -11.8%. Turning to `O=C(CN1C(=O)C2CC=CCC2C1=O)Nc1nnc(SCc2ccc(Cl)cc2)s1` (stereo unspecified), the inhibition is -4.26%. Take `Cc1ccc(NC2=C(N3CCOCC3)C(=O)c3ccccc3C2=O)cc1`: the inhibition came out at 18%. Turning to `CCC(=O)N1Cc2ccccc2-c2ccccc2C1=O`, the inhibition was -4.86%. For the compound `COc1ccc(-n2nc3ccccc3n2)cc1`, the inhibition is -5.75%. Still for that read-out and setting: for `CCCCn1c(N)c(NCCC(C)C)c(=O)[nH]c1=O` the value was 33%; for `Cc1csc(N2CCc3ccccc32)n1`, -9.56%. Still for that read-out and setting: as for `Cc1ccc(NC2=C(N3CCCCC3)C(=O)c3ccccc3C2=O)cc1`, the figure is 35.4%; as for `CCc1cc[n+](C2=C([O-])c3ccccc3C(=O)/C2=N\S(=O)(=O)c2cccs2)cc1`, 2.75%. `CCOc1ccc(C(=S)N2CCOCC2)cc1OC`: the inhibition was -1.37%. On to `Cc1ccc(S(=O)(=O)N2CCCC(C(=O)NCc3ccco3)C2)cc1Cl` (stereo unspecified), for which the inhibition was determined as 12.9%. Regarding `CCCCOC(=O)C1=C(C)NC2(O)c3ccccc3C(=O)C12O` (stereo unspecified), the IC50 is > 50 µM (inactive) and the inhibition amounted to 36.9%. On the same counts, the results for `CCOC(=O)/C(N=Nc1ccc(F)cc1)=C(/O)c1ccc([N+](=O)[O-])cc1` are > 50 µM (inactive) and -5.66%. Take `COCCCNC(=O)CCCC(=O)NCCCOC`: the inhibition is -17.3%. Turning to `COc1ccc(-c2nnc(SCC(=O)c3cccs3)o2)c(OC)c1`, the inhibition was -10.6%. The same measure, in the same setting: for `CCOC(=O)c1ccc(NS(=O)(=O)c2cc(-c3nnnn3C(C)C)ccc2OC)cc1` the value was -7.2%; for `COc1ccc(CN2C(=O)c3ccccc3C(/C=N\OCc3ccc(F)cc3)C2=O)cc1` (stereo unspecified), 3.35%; for `COc1cc(NCCCCCCCN)c2ncccc2c1`, 56.5%. On the same count and under the same terms, as for `O=C(NC(Cc1c[nH]c2ccccc12)c1nnc2n1CCCCC2)c1cccs1` (stereo unspecified), the figure is 0.82%. On to `COc1ccccc1-c1c(C)nn2c(N3CCCCCC3)cc(C)nc12`, for which the inhibition is -1.28%.

With `CN1C(=O)C(Cc2cccc3ccccc23)C(=O)N(C)C1=O`, the inhibition amounted to 20.5%.

`CC(C)(C)c1cc(OC(=O)c2ccncc2)ccc1O`: the inhibition was 30.2%. On to `S=c1[nH]nc(-c2ccccc2)n1/N=C/C=C/c1ccco1`, for which the inhibition worked out at 3.47%. For the compound `CC1(C)COC(/C=C/c2ccc([N+](=O)[O-])cc2)=N1`, the inhibition is -8.03%.

Take `CCOC(=O)C1=C(C)NC2(O)c3ccccc3C(=O)C12O` (stereo unspecified): the IC50 is > 50 µM (inactive) and the inhibition amounted to 40%. Consider `CN(C1=C(NC(=O)c2ccccc2)C(=O)c2ccccc2C1=O)C1CCS(=O)(=O)C1` (stereo unspecified), for which the inhibition was 27%. With `COc1ccccc1N1C(C)=CC(=C(C#N)c2nc3ccccc3s2)C=C1C`, the inhibition is -2.35%.

With `CC(=O)N1C(=O)/C(=C2\SC(=S)N(c3c(C)n(C)n(-c4ccccc4)c3=O)C2=O)c2ccccc21`, the inhibition is 4.95%. For the compound `CCO/C=C1\C(=O)N(c2ccccc2)C(=O)c2ccccc21`, the inhibition was 39.1%. On to `Cc1cc(C)nc(SCC(=O)Oc2ccc3oc(=O)cc(C)c3c2)n1`, for which the inhibition was -24.4%. For the compound `CCOc1cc(CNc2ccc(N3CCCC3)cc2)cc(Cl)c1OC`, the inhibition is -6.54%. Same read-out and setting: as for `CC(=O)c1ccc(NC2=C(N3CCOCC3)C(=O)c3ccccc3C2=O)cc1`, the figure is 30.4%; as for `COc1ccc2cc(-c3cc(C(=O)OCC(=O)NC4CCS(=O)(=O)C4)c4ccccc4n3)ccc2c1` (stereo unspecified), 3.98%.

Turning to `N#Cc1c(N)n(CCNC(=O)c2cccs2)c2nc3ccccc3nc12`, the inhibition is -16.9%.

In the case of `O=C(/C=C/c1ccc([N+](=O)[O-])cc1)OCC(=O)N1c2ccccc2Sc2ccccc21`, the inhibition is -1.56%. As for `CCN(CC)c1ccc(C=Nc2ccccc2)c(O)c1`, the inhibition stood at 17.6%. `COC(=O)CSc1nnc(CNC(=O)c2cccc(C)c2)n1-c1ccccc1OC`: the inhibition is -14.7%.

On to `Cc1ccc2c(C)[nH]c(=O)cc2c1`, for which the inhibition was 0.968%. Turning to `Clc1ccc(C2=CSC3=Nc4cccc5cccc(c45)N23)cc1`, the inhibition is 13.3%. As for `N#Cc1ccccc1Cn1cc(C#N)c2ccccc21`, the inhibition is -11.8%. Turning to `Cc1oc2ccccc2c1-c1cn2c(n1)SCC2`, the inhibition was -2.41%. On to `Cc1nc2ccccc2c(=O)n1NC(=O)c1c(O)c2c(n(CC(C)C)c1=O)CCCC2`, for which the inhibition is -4.05%. The same measure, in the same setting: for `O=C(CSc1nnc(-c2ccccc2)o1)n1c2c(c3ccccc31)CCCC2` the value was -10.9%. Regarding `CCOC(=O)C(NC(=O)Nc1ccccc1)(OCC)C(F)(F)F` (stereo unspecified), the inhibition was 2.58%. Turning to `O=[N+]([O-])c1ccc(-c2csc3[n+]2CCS3)cc1`, the inhibition was 20.8%.

Turning to `CSc1nsc(/C=C/Nc2ccc(Cl)cc2)c1C#N`, the IC50 was > 50 µM (inactive) and the inhibition was -6.81%. In the case of `O=C1C(Nc2ccccc2)=C(N2CCCCC2)C(=O)c2ccccc21`, the inhibition came out at 41.9%.

Turning to `Cc1c(Br)cc(C(=O)OC2CCN(C)CC2)c(C)c1C`, the inhibition was found to be 0.211%. In the case of `c1ccc(-c2csc3ncnc(NCCCN4CCOCC4)c23)cc1`, the inhibition is -1.85%. Turning to `CCN(CC)c1ccc(/C=N/Nc2ccccc2)c(O)c1`, the IC50 is > 50 µM (inactive) and the inhibition was -13.5%. For `Cc1onc(-c2ccccc2)c1C(=O)NCc1ccccn1`, the inhibition is -11.6%. Turning to `COc1cc(C2C(C(=O)OC(C)C)=C(C)Nc3[nH]c(=O)[nH]c(=O)c32)ccc1O` (stereo unspecified), the IC50 was > 50 µM (inactive) and the inhibition came to 4.55%.

Take `Cc1ccccc1/[N+]([O-])=C/c1ccncc1`: the inhibition came to 15.6%. Same read-out and setting: as for `CCN(CC)CCCNC(=O)Cc1c(C(=O)O)n(C)c2ccccc12`, the figure is -8.3%; as for `COc1ccc(CCN2C(=O)c3ccncc3C2=O)cc1OC`, 0.113%; as for `O=C(c1ccco1)N1CCN(CC(=O)N2CCCc3c2c(=O)oc2ccc(O)cc32)CC1`, -5.68%. Still for that read-out and setting: for `COc1cccc(-c2nc(CS(=O)(=O)CC(=O)N3CCc4ccccc4C3)c(C)o2)c1` the value was -0.295%; for `CC(=O)[C@H]1[C@@H]2C(=O)N(c3cccc(Cl)c3)C(=O)[C@@H]2[C@H]2c3ccccc3C=CN21`, 5.01%. Same read-out and setting: as for `COc1ccc(/C=N/NC(=O)C(C)n2cnc3ccccc3c2=O)cc1OC` (stereo unspecified), the figure is 8.51%. Take `CC(=O)Nc1ccc(-c2nnc(SCC(=O)n3c4c(c5ccccc53)CCCC4)n2C)cc1`: the inhibition was -7.8%.

`CCOC(=O)Oc1ccc2oc(=O)cc(C)c2c1`: the inhibition is -13.7%. Turning to `CCN(CC)c1ccc(NC(=O)c2cccc(OC)c2)c(C)c1`, the inhibition is -4.28%.

Take `O=c1[nH]c(Nc2ccc(F)cc2)cc2ccccc12`: the inhibition turned out to be 28.2%.
